Entries after “also recorded” stand apart in the source; their conditions may differ. Where a name gives a salt, the structure may show the parent alone.
Key:
[1] = system: scopolamine impaired rats; test: Water maze hidden platform task in scopolamine impaired rats; type: in vivo, Long Evans rats; settings: for Hidden platform task performance (latency, swim path length) vs saline controls; reversal of scopolamine effect: donepezil 0.75 mg/kg p.o. daily with scopolamine 0.1 mg/kg i.p., test days 3 and 4, hydrochloride
Experimental: (§1) Male Long-Evans rats (3 months of age) were administered either saline, donepezil (0.75 mg/kg), or PP-100 (3.0 mg/kg or 40.0 mg/kg) by oral gavage for 10 days prior to (and during the 5 days of) testing in a water maze task. The compounds were evaluated for their ability to reverse the amnestic effects of scopolamine (0.1 mg/kg) in this task.
The animals were randomly assigned to one of 5 groups (n=10/group) and administered one daily dose of either of two doses of the choline derivative PP-100 (3 or 40 mg/kg), donepezil HCL (0.75 mg/kg), or vehicle (0.9% saline), via oral gavage (p.o.) beginning ten days prior to initiation of the water maze task. Daily dosing continued through the initial day of visible platform testing and the subsequent five days of water maze testing (i.e., on hidden platform test days as well as probe trial days). On both the single day of pre-testing (Visible Platform Test) as well as on each day of watermaze testing, thirty minutes prior to the first trial, 0.1 mg/kg of scopolamine hydrobromide was administered i.p. to four of the five groups (i.e., excluding the saline-saline group). Fifteen minutes after the scopolamine injection (or vehicle) each group was dosed with one of the test articles or vehicle (see Table 1 for an overview of the testing protocol). Test articles were prepared according to the supplied instructions, and aliquots of the solutions were stored (at −20° C.). Test agents were freshly thawed at the time of use.
In order to test and compare the effects of PP-100 on both acquisition and recall of spatial memories, the water maze hidden platform task was utilized. […] Scopolamine is known to impair performance in the water maze task, and blockage of scopolamine effects is known to reduce impairment in the water maze (e.g., Terry et al., Drug Dev. Res., 47:97 (1999).
The water maze experiment was performed in a circular pool (diameter=180 cm, height=76 cm) made of black plastic. The pool was filled with water to a depth of 35 cm and the water was maintained at 25.0±1.0° C. The pool was located in a large room with a number of extra-maze visual cues including geometric images (squares, triangles, circles etc.) hung on the wall, diffuse lighting, and black curtains used to hide the experimenter (visually) and the resting test subjects. Swimming activity of each rat was monitored via a television camera mounted overhead, which relayed information including latency to find the platform, total distance traveled, time and distance spent in each quadrant etc. to a video tracking system (Actimetrics, Evanston, Ill.).
For the water maze test itself, the escape platform was submerged. […]

[2] = system: scopolamine impaired rats; test: Water maze visible platform task (pre-test) in scopolamine impaired rats; type: in vivo, Long Evans rats; settings: scopolamine 0.1 mg/kg i.p.; hydrobromide
Experimental: as §1
The animals were randomly assigned to one of 5 groups (n=10/group) and administered one daily dose of either of two doses of the choline derivative PP-100 (3 or 40 mg/kg), donepezil HCL (0.75 mg/kg), or vehicle (0.9% saline), via oral gavage (p.o.) beginning ten days prior to initiation of the water maze task. Daily dosing continued through the initial day of visible platform testing and the subsequent five days of water maze testing (i.e., on hidden platform test days as well as probe trial days). […]
The water maze experiment was performed in a circular pool (diameter=180 cm, height=76 cm) made of black plastic. […] Swimming activity of each rat was monitored via a television camera mounted overhead, which relayed information including latency to find the platform, total distance traveled, time and distance spent in each quadrant etc. to a video tracking system (Actimetrics, Evanston, Ill.). […]

| SMILES | Hidden platform task performance (latency, swim path length) vs saline controls; reversal of scopolamine effect [1] | Hidden platform task performance (latency, swim path length) vs saline controls; reversal of scopolamine effect ([1]; listed as Donepezil) | Hidden platform task performance vs saline controls ([1]; with scopolamine 0.1 mg/kg i.p., donepezil 0.75 mg/kg or PP-100 3 or 40 mg/kg p.o., test days 1 and 2) | Effect on ability to locate a highly visible platform [2] | Effect on learning in the hidden platform task (latency, swim distance) ([1]; scopolamine 0.1 mg/kg i.p. 30 minutes before first trial) |
| --- | --- | --- | --- | --- | --- |
| COc1cc2c(cc1OC)C(=O)C(CC1CCN(Cc3ccccc3)CC1)C2 (racemic) [donepezil, (±)-2-[(1-benzyl-4-piperidyl)methyl]-5,6-dimethoxy-1-indanone hydrochloride] | did not differ (statistically) from saline controls | appeared to at least partially reverse the effects of scopolamine | generally performed less efficiently than saline controls | – | – |
| CN1[C@@H]2C[C@@H](OC(=O)[C@H](CO)c3ccccc3)C[C@H]1[C@@H]1O[C@@H]12 [scopolamine, scopolamine hydrobromide] | – | – | – | tended to produce impairment; also recorded: led to some impairment | impaired learning |

Source: US7803842B2, “Choline esters useful for the treatment of cognitive dysfunctions and enhancement of memory, learning and cognition” (priority 2004, dated 2010)
